Tests used:
KB cells = assay: Cell uptake of glucosamine conjugated SX compound by fluorescence microscopy and flow cytometry; format: cell-based; settings: 30 μM, 30 minutes
Experimental: This example illustrates cell uptake of a biomolecule (glucosamine) conjugated SX compound, compound 67 in KB cells. KB cells were cultured in media for 2 h then incubated with 30 μM of compound 67 for 30 minutes before analysis of the cells by fluorescence microscopy and flow cytometry with appropriate filter sets for the two different fluorescent dyes. As a control, cells were also incubated with the commercial fluorescent glucosamine derivative 2-NBDG also at 30 μM.

[1] = Optical properties of silaxanthenium fluorochromes (absorption/emission maxima, relative brightness); format: physicochemical; settings: for Abs. λmax / Em. Λmax: 1×PBS, 1 cm square cuvette; for Relative Fluorescence: brightness (fluorescence intensity / absorption at λmax) normalized to CY1, 1×PBS
Description: The relative brightness is defined by the fluorescence intensity of a solution of the fluorochrome in a 1 cm square cuvette when excited at its wavelength of maximum absorption divided by the absorption of the same sample at the wavelength of maximum absorption. The three examples shown with a S atom in the X position of Formula II are red shifted about 20 nm relative to three examples with the S atom in the Y or Z positions.
This example summarizes in Table 3 the absorption and emission characteristics of some exemplary silaxanthenium (SX) fluorochromes relative to a cell impermeable cyanine dye (sulfonated Cy5 analog) CY1. Absorption and emission characteristics were measured in 1×PBS in a 1 cm square cuvette. Relative fluorescence (brightness) was measured as in Example 8 and normalized to that of compound CY1.

[2] = In vivo tomographic imaging (FMT 2500) after intravenous injection; settings: 2 nmoles intravenous, SKH-1 E female mice
Experimental: Two SKH-1 E female mice (9 weeks old) were injected with 2 nmoles of compound 44. Tomographic images of the whole body of the mouse were taken at 1, 15, 30 and 45 minutes and 1, 2 and 3 hours.

4T1 cells = assay: Cellular uptake and washout by flow cytometry and fluorescence microscopy; format: cell-based; settings: for cellular uptake: 1 uM, 30 min, 37° C.; for dye still remaining after washout: 1.5 h washout, flow cytometry
Experimental: (§1) Two isomeric thienyl Si-Rho dyes 88 and 89, were synthesized using the methods described previously. The two isomeric compounds, which are of identical molecular weight and molecular formula, have absorption and emission maxima of 652 nm and 668 nm (88) and 667 nm and 681 nm (89). Compounds were analyzed with two different filter sets by flow cytometry and also by fluorescence microscopy for cellular uptake and washout. Trypsin EDTA-detached 4T1 at 0.5 mil cells/mL culture medium were incubated with 1 uM 88 or 89 for 30 min at 37° C. Cells were washed 1× with PBS and analyzed by flow cytometry with a 705/70 nm emission filter for 88 and a 712/21 nm emission filter for 89 and by fluorescence microscopy.

[3] = Absorption and emission maxima of two isomeric thienyl dyes; format: physicochemical
Experimental: as §1

chymotrypsin = assay: Fluorescence activation of internally quenched probe upon protease cleavage; format: biochemical; settings: 1×PBS, 37° C., 4 h
Description: FIG. 6A illustrates fluorescence activation upon enzyme cleavage of an internally quenched pair of silaxanthenium fluorochromes separated by an enzyme cleavable peptide sequence (Compound 78). Compound 78 was synthesized by conjugating two carboxylic acid dyes to lysine side chain amines in the peptide sequence using HATU and triethylamine. The quenched probe was purified by HPLC. Absorbance and fluorescence, measured on a Cary 50 UV-vis spectrophotometer (Varian) and a Cary Eclipse fluorescence spectrophotometer, respectively, of the quenched (dashed lines) and activated (cleaved by chymotrypsin in 1×PBS, solid lines) fluorochromes are shown in FIG. 6B.
A 22-fold increase in fluorescence intensity was observed. […] Trypsin EDTA-detached 4T1 were seeded in a 6-well tissue culture plate at 0.5 mil cells/2 mL of culture medium were incubated with 1 or 5 uM of 92, 93, or 91 for 21 h at 37° C. Cells were washed 1× with PBS, detached, and analyzed by FC and FLM (Cy5 filter). […] Trypsin EDTA-detached 4T1 cells were implanted 1.5 mil/site approximately 1 week prior to imaging. 92 was injected retro-orbitally at 4 nmol and imaged by FMT at 5 and 24 h.

## O=[N+]([O-])c1ccc(N[C@H]2C(O)O[C@H](CO)[C@@H](O)[C@@H]2O)c2nonc12 (stereo partly shown) [Compound 2-NBDG, reference compound]
KB cells
  cell uptake: taken up by the cells
  quantification of cell fluorescence by flow cytometry: in normal analysis range

## Cc1csc(C(=O)O)c1C1=C2C=CC(=[N+](C)C)C=C2[Si](C)(C)c2cc(N(C)C)ccc21 [Compound 17, 3,6-bis(dimethylamino)-9-(2-carboxy-4-methyl-thien-3-yl)-10,10-dimethyl-10-silaxanthenium chloride]
[1]
  Abs. λmax: 649 nm
  Em. Λmax: 666 nm
  Relative Fluorescence: 1.11

## Cc1c(C2=C3C=CC(=[N+](C)C)C=C3[Si](C)(C)c3cc(N(C)C)ccc32)csc1C(=O)O [Compound 18, 3,6-bis(dimethylamino)-9-(2-carboxy-3-methyl-thien-4-yl)-10,10-dimethyl-10-silaxanthenium chloride]
[1]
  Abs. λmax: 653 nm
  Em. Λmax: 668 nm
  Relative Fluorescence: 1.02

## Cc1cc(C(=O)O)ccc1C1=C2C=CC(=[N+]3CCCC3)C=C2[Si](C)(C)c2cc(N3CCCC3)ccc21 [Compound 44, 3,6-bis(pyrridolin-1-yl)-9-(2-methyl-4-carboxyphenyl)-10,10-dimethyl-10-silaxanthenium]
[1]
  Abs. λmax: 655 nm
  Em. Λmax: 669 nm
  Relative Fluorescence: 1.54
[2]
  wash out of the untargeted compound: ≤ 3 h
[2]; imaged 1 minute to 3 hours
  biodistribution by tomographic imaging: Rapid accumulation of the fluorochrome compound can be seen in the heart region followed by slower accumulation to other areas of the body

## Cc1cc(C(=O)O)ccc1C1=C2C=CC(=[N+]3CCOCC3)C=C2[Si](C)(C)c2cc(N3CCOCC3)ccc21 [Compound 45, 3,6-bis(morpholino)-9-(2-methyl-4-carboxyphenyl)-10,10-dimethyl-10-silaxanthenium]
[1]
  Abs. λmax: 651 nm
  Em. Λmax: 670 nm
  Relative Fluorescence: 0.75

## CN(C)c1ccc2c(c1)[Si](C)(C)C1=CC(=[N+](C)C)C=CC1=C2c1ccc(C(=O)O)s1 [Compound 65, 3,6-bis(dimethylamino)-9-(2-carboxy-thien-5-yl)-10,10-dimethyl-10-silaxanthenium chloride]
[1]
  Abs. λmax: 669 nm
  Em. Λmax: 683 nm
  Relative Fluorescence: 0.05

## Cc1c(C(=O)O)sc(C2=C3C=CC(=[N+](C)C)C=C3[Si](C)(C)c3cc(N(C)C)ccc32)c1Br [Compound 66]
[1]; relative to compound 17 (S moved from Z to X position, bromine substituent added)
  red shift: 23 nm

## Cc1cc(C(=O)N[C@@H]2[C@@H](O)[C@H](O)[C@@H](CO)O[C@@H]2O)ccc1C1=C2C=CC(=[N+]3CCCC3)C=C2[Si](C)(C)c2cc(N3CCCC3)ccc21 [Compound 67]
KB cells
  cell uptake: taken up by the cells
  quantification of cell fluorescence by flow cytometry: detector saturation

## Cc1ccccc1C1=C2C=CC(=[N+](C)C)C=C2[Si](C)(C)c2cc(N(C)C)ccc21 [Compound 77]
[1]
  Abs. λmax: 650 nm
  Em. Λmax: 666 nm
  Relative Fluorescence: 1.20

## CN(C)c1ccc2c(c1)[Si](C)(C)c1cc(N(C)C)ccc1[C+]2c1ccsc1 [Compound 88]
4T1 cells
  cellular uptake: Significant uptake
  dye still remaining after washout: approximately one third
[3]
  absorption maximum: 652 nm
  emission maximum: 668 nm

## CN(C)c1ccc2c(c1)[Si](C)(C)c1cc(N(C)C)ccc1[C+]2c1cccs1 [Compound 89]
4T1 cells
  cellular uptake: Significant uptake
  dye still remaining after washout: approximately one third
[3]
  absorption maximum: 667 nm
  emission maximum: 681 nm

## CC(C)C[C@@H](NC(=O)[C@@H](Cc1ccccc1)NC(=O)CNC(=O)[C@@H](CCCCNC(=O)c1cc(C2=C3C=CC(=[N+](C)C)C=C3[Si](C)(C)c3cc(N(C)C)ccc32)c(C(=O)[O-])s1)NC(=O)CCC(=O)O)C(=O)NCC(=O)N[C@H](CCCCNC(=O)c1cc(C2=C3C=CC(=[N+](C)C)C=C3[Si](C)(C)c3cc(N(C)C)ccc32)c(C(=O)[O-])s1)C(N)=O [Compound 91]
chymotrypsin
  increase in fluorescence intensity: 22 fold

— patent publication US9649389B2, “Substituted silaxanthenium red to near-infrared fluorochromes for in vitro and in vivo imaging and detection” (VisEn Medical, Inc., priority 2013, dated 2017)
